Reference: PMC12331786, “Component characterization of Smilax glabra Roxb., and its inhibitory activity against Helicobacter pylori through targeted suppression of its secreted urease” (Frontiers in Cellular and Infection Microbiology, 2025)
In brackets after ≈: the same amount, converted by molar mass. Like-named read-outs stand apart in the source and are kept apart here.

Columns and labels:
[1] = tested on: H. pylori strains (ATCC 43504, NCTC 26695, ICDC 111001); experiment: Minimal inhibitory concentration assay (agar dilution method); assay type: cell-based; settings: Helicobacter pylori, H. pylori strain ICDC 111001
[2] = molecular target: T1, H. pylori urease (HPU) (Helicobacter pylori, UniProt P69996); experiment: biochemical; assay type: biochemical, H. pylori strain ATCC 43504
T1 construct: The resulting HPU preparation represents a crude enzyme extract; endogenous in cells; host or cells: H. pylori strain ATCC 43504 (crude enzyme extract, method of Matsubara et al. 2003)
Method: H. pylori was inoculated in Campylobacter agar and grown on Columbia agar with appropriate bovine serum albumin at 37°C, 98% humidity, and low aerobic conditions (5% O2, 10% CO2, and 85% N2) for 72 hours. Three days later, H. pylori was collected by scraping and then suspended in phosphate buffered saline (PBS). Besides, the H. pylori concentration was calibrated to 1×10^8 CFU/mL by turbidimetric method. Standard HPU was extracted from H. pylori strain ATCC 43504 following the approach detailed by [Matsubara et al. (2003)]. The resulting HPU preparation represents a crude enzyme extract, which has been widely adopted for initial inhibitor screening studies ([Li et al., 2018]; [Tan et al., 2017]; [Yu et al., 2015]). All inhibition assays included appropriate controls (enzyme blanks and solvent controls) to ensure specific detection of urease activity.
(§1) The protein concentration of HPU was tested utilizing BCA protein detection kit. Standard urease test mixture consists of 150 mM urea in HEPES buffer (20 mM). HPU solution of varying concentrations was mixed with 150 mM urea as the substrate in a HEPES buffer (20 mM), and then reacted at 37 °C for 20 min. Urease vitality was assessed based on ammonia levels generated during the reaction. Ultimately, residual urease activity was measured by modified Berthelot (phenol hypochlorite) at 595 nm. This experiment was performed three times in parallel.
(§2) Test drug solution with equal volume and different concentration was mixed with urease and incubated in a 96-well plate at 37°C for 20 min. AHA was used as the positive control, while urease with urea (no depressor) served as the negative control. Moreover, urea solution (150 mM) was admixed and coincubated at ambient temperature for 20 min. Residual urease activity was measured via using the modified Berthelot method. The percentage of residual activity (RA%) was calculated as (A^sample - A^blank)/(A^negative control - A^blank)×100%, where A^blank represents the background absorbance without urease. Calculating the half-maximal inhibitory concentration (IC50) of the depressor to assess the impact of the test drug towards enzyme activity. Each experiment was conducted in triplicate for validation.

[3] = molecular target: T2, jack bean urease (JBU) (Canavalia ensiformis, UniProt P07374); experiment: biochemical; assay type: biochemical
T2 construct: purchased Sigma Aldrich
Description: Campylobacter agar medium was purchased from Thermo Fisher Scientific. Acetylhydroxamic acid (AHA), jack bean urease (JBU, type III with specific activity 40.3 U/mg solid) and urea were obtained from Sigma Aldrich. Boric acid (BA) and sodium fluoride (NaF) were purchased from Maclin (Shanghai, China). Dithiothreitol (DTT) and L-cysteine (L-cys) were obtained from Solaibao (Beijing, China). Glutathione (GSH) was obtained from Meilun (Dalian, China). HEPES (Amresco >99%) was from BioFroxx. All chemicals and reagents were of analytic purity.
as §1, §2

[4] = molecular target: T1, H. pylori urease (HPU); experiment: biochemical; assay type: biochemical, H. pylori strain ATCC 43504; remark: listed apart in the source
Method: Residual urease activity was determined by pre-incubating test drug, urease mixture with a series of urea concentrations. Michaelis constant (KM ) and maximum velocity (vmax ) values are obtained from the Lineweaver-Burk plots of 1/v and 1/urea by plotting the reciprocal reaction velocity and substrate concentration. Variation characteristics of urease kinetic parameters KM and vmax were analyzed by adding different concentrations of test products to determine the type of inhibiting effect on HPU. Each sample was performed in triplicate.

[5] = molecular target: T2, jack bean urease (JBU); experiment: biochemical; assay type: biochemical; remark: listed apart in the source

T1 sequence (P14916 whole entry): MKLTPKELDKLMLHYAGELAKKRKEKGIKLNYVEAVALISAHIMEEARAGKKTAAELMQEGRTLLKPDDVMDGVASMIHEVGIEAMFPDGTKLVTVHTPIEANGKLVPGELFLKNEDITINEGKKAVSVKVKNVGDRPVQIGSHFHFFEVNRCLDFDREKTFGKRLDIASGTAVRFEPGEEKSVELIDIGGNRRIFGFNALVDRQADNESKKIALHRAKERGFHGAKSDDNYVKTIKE
T1 sequence (P69996 whole entry): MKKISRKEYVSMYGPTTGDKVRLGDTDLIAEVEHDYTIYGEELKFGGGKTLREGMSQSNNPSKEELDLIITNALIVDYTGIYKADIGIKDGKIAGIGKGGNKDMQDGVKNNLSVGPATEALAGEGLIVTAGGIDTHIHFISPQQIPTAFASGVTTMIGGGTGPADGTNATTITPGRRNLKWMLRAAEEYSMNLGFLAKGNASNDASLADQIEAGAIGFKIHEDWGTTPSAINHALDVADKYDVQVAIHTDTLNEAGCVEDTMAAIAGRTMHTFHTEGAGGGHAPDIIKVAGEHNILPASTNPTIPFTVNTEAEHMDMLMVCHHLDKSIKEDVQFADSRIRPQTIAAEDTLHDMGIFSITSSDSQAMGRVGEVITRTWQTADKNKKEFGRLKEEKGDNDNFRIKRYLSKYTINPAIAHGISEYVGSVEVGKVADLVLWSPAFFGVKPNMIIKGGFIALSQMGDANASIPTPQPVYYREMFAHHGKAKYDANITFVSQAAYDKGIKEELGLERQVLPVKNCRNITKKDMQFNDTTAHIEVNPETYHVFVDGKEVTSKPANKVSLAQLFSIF
T2 sequence (P07374 whole entry, looked up): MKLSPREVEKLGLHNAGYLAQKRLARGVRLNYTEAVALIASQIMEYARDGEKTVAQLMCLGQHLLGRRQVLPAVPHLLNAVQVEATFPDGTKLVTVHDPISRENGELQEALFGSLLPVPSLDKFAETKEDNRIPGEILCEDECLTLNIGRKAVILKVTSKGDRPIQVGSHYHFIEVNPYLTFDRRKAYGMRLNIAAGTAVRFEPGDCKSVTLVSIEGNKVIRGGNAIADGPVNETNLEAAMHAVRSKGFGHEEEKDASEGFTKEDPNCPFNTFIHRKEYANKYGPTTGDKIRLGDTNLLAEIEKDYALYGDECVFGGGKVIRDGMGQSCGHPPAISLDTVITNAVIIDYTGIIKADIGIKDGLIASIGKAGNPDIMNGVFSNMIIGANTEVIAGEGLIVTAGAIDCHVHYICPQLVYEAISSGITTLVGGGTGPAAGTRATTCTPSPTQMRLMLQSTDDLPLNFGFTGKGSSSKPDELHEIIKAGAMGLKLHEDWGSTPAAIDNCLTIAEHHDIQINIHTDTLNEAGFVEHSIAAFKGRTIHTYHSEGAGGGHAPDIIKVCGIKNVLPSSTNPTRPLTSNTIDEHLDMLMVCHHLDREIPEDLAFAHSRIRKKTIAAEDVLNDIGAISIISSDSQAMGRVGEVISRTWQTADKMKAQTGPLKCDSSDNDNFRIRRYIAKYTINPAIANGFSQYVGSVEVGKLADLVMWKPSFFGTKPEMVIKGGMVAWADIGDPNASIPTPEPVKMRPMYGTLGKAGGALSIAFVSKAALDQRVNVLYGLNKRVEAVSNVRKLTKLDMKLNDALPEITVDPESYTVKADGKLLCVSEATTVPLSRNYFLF

## Cc1ncc([N+](=O)[O-])n1CCO [Metronidazole]
[1]
  MIC: 2 µg/mL (≈ 11.7 µM)
[1]; pH 7.2
  MIC: 2 µg/mL (≈ 11.7 µM)

## CC(=O)NO [AHA, Acetylhydroxamic acid, reference compound]
[2]; HPU, positive control
  IC50: 4.93 ± 0.11 µg/mL
[3]; JBU, positive control
  IC50: 1.56 ± 0.10 µg/mL

## C[C@@H]1O[C@@H](O[C@H]2C(=O)c3c(O)cc(O)cc3O[C@@H]2c2ccc(O)cc2)[C@H](O)[C@H](O)[C@H]1O [engeletin]
[2]
  IC50: 5890 ± 10 µM
[3]
  IC50: 6670 ± 10 µM

## C[C@@H]1O[C@@H](O[C@H]2C(=O)c3c(O)cc(O)cc3O[C@@H]2c2ccc(O)c(O)c2)[C@H](O)[C@H](O)[C@H]1O [astilbin]
[2]
  IC50: 1470 ± 10 µM
[2]; urease, HPU/JBU not given
  Strength of urease inhibition relative to engeletin: more than three times as strongly
[3]
  IC50: 2220 ± 20 µM
[4]
  Ki: 870 ± 10 µM
[4]; HPU
  Kis: 0.87 ± 0.01 mM
[4]; HPU, Lineweaver-Burk analysis
  Inhibition type: non-competitive
[5]
  Ki: 200 ± 10 µM
[5]; JBU
  Kis: 1.17 ± 0.10 mM
[5]; JBU, Lineweaver-Burk analysis
  Inhibition type: mixed
